Results taken from US20090162351A1, “Transdiscal administration of inhibitors of p38 MAP kinase” (DePuy Spine, Inc., priority 2007, published 2009).
Values belong to the compound of their own block, whether it stands above or below them.

Legend:
[1] = biological target: JNK2 (Homo sapiens, UniProt P45984); assay: JNK2 inhibition; format: biochemical; details: read-out: inhibitor of JNK2, IC50
[2] = tested on: annulus fibrosus and nucleus pulposus cells from bovine caudal discs treated with IL-1β; assay: 3D in vitro disc cell model: GAG (DMMB); format: cell-based
Description: Three-dimensional in vitro annulus fibrosis (AF) and nucleus pulposus (NP) models were established to investigate proteoglycan modulation and changes in gene expression in response to inflammatory cytokines such as interleukin-1 (e.g., IL-1β) and potential therapeutic agents such as growth and differentiation factor (GDF-5), and p38 MAP kinase inhibitors. AF and NP cells from bovine caudal discs were isolated by enzymatic digestion and seeded (2×10^6 cells/cm^2) onto Millipore CM filters coated with Collagen Type II and cultured in DMEM/20% heat-inactivated FBS, 100 ug/ml ascorbic acid and 5 ng/ml TGFβ1. […] Results were evaluated by histology (Tol. Blue staining was used to observe matrix production). Dimethylmethylene blue (DMMB) was used to detect sulphated glycosaminoglycans in a GAG/DNA assay. Taqman analysis was performed on aggrecans (AGG), collagen type 1 (col-1), collagen type 2 (col-2), and MMP 3, MMP 9 and MMP 13. In FIGS. 19A-C and 20A-C, annulus fibrosus and nucleus pulposus cells from bovine caudal discs were isolated by enzymatic digestion and seeded (2×10^6 cells/cm2) onto Millipore CM filters coated with Collagen Type II and cultured in DMEM/20% heat-inactivated FBS/100 ug/ml ascorbic acid and 5 ng/ml TGF-β1.

[3] = tested on: JNK; assay: JNK inhibition; format: biochemical; details: read-out: inhibitor of JNK, IC50
[4] = tested on: LPS-induced IL-1 in hPBMC; assay: LPS-induced IL-1 in hPBMC; format: cell-based, human; details: read-out: inhibitor of LPS-induced IL-1 in hPBMC, IC50
[5] = biological target: inactivated p38 MAP kinase (Homo sapiens, UniProt Q16539); assay: Binding to inactivated p38 MAP kinase; details: read-out: binds to inactivated p38 MAP kinase, Kd
[6] = Monkey PK; details: in vivo, female monkey

Sequence of JNK2 (P45984 whole entry, species assumed): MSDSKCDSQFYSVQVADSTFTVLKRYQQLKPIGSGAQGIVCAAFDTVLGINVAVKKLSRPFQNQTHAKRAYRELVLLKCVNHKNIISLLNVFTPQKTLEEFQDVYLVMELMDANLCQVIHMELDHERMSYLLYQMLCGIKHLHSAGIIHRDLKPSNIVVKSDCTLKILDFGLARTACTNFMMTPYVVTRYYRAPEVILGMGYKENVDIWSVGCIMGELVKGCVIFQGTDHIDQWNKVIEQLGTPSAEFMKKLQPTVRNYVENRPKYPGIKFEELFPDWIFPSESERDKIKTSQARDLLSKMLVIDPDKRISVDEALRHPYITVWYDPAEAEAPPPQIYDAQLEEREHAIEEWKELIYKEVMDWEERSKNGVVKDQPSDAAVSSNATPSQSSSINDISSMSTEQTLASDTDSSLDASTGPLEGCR
Sequence of inactivated p38 MAP kinase (Q16539 whole entry): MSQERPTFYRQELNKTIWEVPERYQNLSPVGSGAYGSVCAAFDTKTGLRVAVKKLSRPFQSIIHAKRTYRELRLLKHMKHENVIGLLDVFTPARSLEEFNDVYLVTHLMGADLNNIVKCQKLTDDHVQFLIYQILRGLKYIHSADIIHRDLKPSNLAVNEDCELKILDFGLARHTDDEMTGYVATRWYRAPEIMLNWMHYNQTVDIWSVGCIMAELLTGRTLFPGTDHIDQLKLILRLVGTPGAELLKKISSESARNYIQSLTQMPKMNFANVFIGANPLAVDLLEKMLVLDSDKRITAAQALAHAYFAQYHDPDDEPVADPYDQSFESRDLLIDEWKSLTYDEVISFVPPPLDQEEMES

IC50 [1]: 80 nM
Compound: OCCC#Cc1nc(-c2ccc(F)cc2)c(-c2ccncc2)n1CCCc1ccccc1 [JNJ 3026582 (RWJ 67657), 4-[4-(4-fluorophenyl)-1-(3-phenylpropyl)-5-(4-pyridinyl)-1H-imidazol-2-yl]-3-butyn-1-ol]
amount of GAG in the tissue (in words) ([2]; 10 ng/ml IL-1β, inhibitor 1 μM, rhGDF-5 200 ng/ml): restored
GAG release (in words) ([2]; Example V, IL-1β-treated disc cells): prevented GAG release in a dose dependent manner

IC50 [3]: 12 nM
Compound: C[C@H](Nc1nccc(-c2c(-c3ccc(F)cc3)nc3nc(N)ccn23)n1)c1ccccc1 [JNJ 7583979 (RWJ 351958)]

Compound: CC(=O)N1CCN(c2c(-c3ccncc3)c(-c3ccc(F)cc3)c(C#N)n2C)CC1 [JNJ 17089540 (RWJ 669307)]
IC50 [4]: 250 nM
Kd [5]: 100 nM

bioavailability ([6]; read-out: Monkey (F) PK, F %): 12%
half-life ([6]; read-out: Monkey (F) PK, t1/2 (converted)): 1.3 h
Compound: C[C@@H]1CN(Cc2ccc(F)cc2)[C@@H](C)CN1C(=O)c1cc2c(C(=O)C(=O)N(C)C)cn(C)c2cc1Cl [SCIO-469 (SD 469)]
